From patent US20260042764A1, “COMPOSITIONS AND METHODS FOR INHIBITION OF KRAS” (TheRas, Inc., priority 2022, published 2026)

Tested on: GP2d cells (KRAS G12D)
Experiment: Cell-based pERK HTRF assay in GP2d cell (Biological Example 2)
Settings: GP2d, GP2d (KRAS G12D) cells, pERK HTRF
Method in brief: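 Treatment with test compounds lasted one hour in DMEM containing 10% FBS, with DMSO held at 0.25%. Dilution series: 9 points, half-log spacing, highest 1 μM or 100 nM. Lysates were incubated 4–24 h at room temperature with antibody mix, then HTRF was read at 320 nm excitation.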

| SMILES | IC50 |
| --- | --- |
| CCN(c1nc(OC[C@@]23CCCN2C[C@H](F)C3)nc2c(F)c(-c3ccc(F)c4sc(N)c(C#N)c34)c(Cl)cc12)[C@@H]1CCN(C(C)=O)[C@H]1C [Compound 416] | < 0.1 µM |
| CCC(=O)N1CC[C@@H](N(CC)c2nc(OC[C@@]34CCCN3C[C@H](F)C4)nc3c(F)c(-c4ccc(F)c5sc(N)c(C#N)c45)c(Cl)cc23)[C@@H]1C [Compound 417] | < 0.1 µM |
| CN(C)C(=O)c1cn2c(n1)CN(c1nc(OC[C@@]34CCCN3C[C@H](F)C4)nc3c(F)c(-c4ccc(F)c5sc(N)c(C#N)c45)c(C(F)(F)F)cc13)CC2 [Compound 419] | < 0.1 µM |
| C[C@@H]1[C@H](N(C)c2nc(OC[C@@]34CCCN3C[C@H](F)C4)nc3c(F)c(-c4ccc(F)c5sc(N)c(C#N)c45)c(Cl)cc23)CCN1C(=O)C(C)(F)F [Compound 420] | 0.1 to 1 µM |
| C[C@@H]1[C@H](N(C)c2nc(OC[C@@]34CCCN3C[C@H](F)C4)nc3c(F)c(-c4ccc(F)c5sc(N)c(C#N)c45)c(Cl)cc23)CCN1C(=O)C(C)(C)F [Compound 421] | 0.1 to 1 µM |
| C[C@@H]1[C@H](N(C)c2nc(OC[C@@]34CCCN3C[C@H](F)C4)nc3c(F)c(-c4ccc(F)c5sc(N)c(C#N)c45)c(Cl)cc23)CCN1C(=O)C1(F)CC1 [Compound 422] | 0.1 to 1 µM |

Target: T1, Avi-KRAS WT (1-169) GppNHp/RAF1 RBD-3xFLAG (52-151) (Homo sapiens, UniProt P01116)
T1 construct: Avi-KRAS WT (1-169)
Experiment: Raf1-KRAS WT-GppNHP disruption HTRF assay (Biological Example 1)
Type: binding
Settings: KRAS WT-GppNHp/RAF1 RBD HTRF
Method in brief: (§1)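 Protein mix, 1 h RT, 700 rpm; reagent mix, 1 h RT, 700 rpm; HTRF read. Buffer Tris pH 7.5/NaCl/MgCl2/BSA/Tween, 10% DMSO. Output % activity, DMSO = 100%.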

T1 sequence (P01116 1-169 isoform P01116-2): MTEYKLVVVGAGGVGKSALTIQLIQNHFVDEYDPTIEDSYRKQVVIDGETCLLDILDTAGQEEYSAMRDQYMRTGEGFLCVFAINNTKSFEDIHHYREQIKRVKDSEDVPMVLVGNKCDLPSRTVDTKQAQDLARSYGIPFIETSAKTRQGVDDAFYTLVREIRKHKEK

| SMILES | IC50 |
| --- | --- |
| CCN(c1nc(OC[C@@]23CCCN2C[C@H](F)C3)nc2c(F)c(-c3ccc(F)c4sc(N)c(C#N)c34)c(Cl)cc12)[C@@H]1CCN(C(C)=O)[C@H]1C [Compound 416] | 0.1 to 1 µM |
| CCC(=O)N1CC[C@@H](N(CC)c2nc(OC[C@@]34CCCN3C[C@H](F)C4)nc3c(F)c(-c4ccc(F)c5sc(N)c(C#N)c45)c(Cl)cc23)[C@@H]1C [Compound 417] | 0.1 to 1 µM |
| CN(C)C(=O)c1cn2c(n1)CN(c1nc(OC[C@@]34CCCN3C[C@H](F)C4)nc3c(F)c(-c4ccc(F)c5sc(N)c(C#N)c45)c(C(F)(F)F)cc13)CC2 [Compound 419] | 0.1 to 1 µM |
| C[C@@H]1[C@H](N(C)c2nc(OC[C@@]34CCCN3C[C@H](F)C4)nc3c(F)c(-c4ccc(F)c5sc(N)c(C#N)c45)c(Cl)cc23)CCN1C(=O)C(C)(F)F [Compound 420] | 1 to 10 µM |
| C[C@@H]1[C@H](N(C)c2nc(OC[C@@]34CCCN3C[C@H](F)C4)nc3c(F)c(-c4ccc(F)c5sc(N)c(C#N)c45)c(Cl)cc23)CCN1C(=O)C(C)(C)F [Compound 421] | 1 to 10 µM |
| C[C@@H]1[C@H](N(C)c2nc(OC[C@@]34CCCN3C[C@H](F)C4)nc3c(F)c(-c4ccc(F)c5sc(N)c(C#N)c45)c(Cl)cc23)CCN1C(=O)C1(F)CC1 [Compound 422] | 1 to 10 µM |

Target: T2, Avi-KRAS G12D (1-169) GppNHp/RAF1 RBD-3xFLAG (52-151) (Homo sapiens, UniProt P01116, G12D)
T2 construct: Avi-KRAS G12D (1-169)
Experiment: Raf1-KRAS G12D-GppNHP disruption HTRF assay (Biological Example 1)
Type: binding
Settings: KRAS G12D-GppNHp/RAF1 RBD HTRF
Method in brief: as §1

T2 sequence (P01116 1-169 isoform P01116-2 G12D): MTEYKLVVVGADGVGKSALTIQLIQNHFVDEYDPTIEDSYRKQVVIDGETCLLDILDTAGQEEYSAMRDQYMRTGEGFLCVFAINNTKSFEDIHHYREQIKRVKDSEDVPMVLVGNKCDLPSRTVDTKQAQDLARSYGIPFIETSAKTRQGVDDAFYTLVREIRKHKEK

| SMILES | IC50 |
| --- | --- |
| CCN(c1nc(OC[C@@]23CCCN2C[C@H](F)C3)nc2c(F)c(-c3ccc(F)c4sc(N)c(C#N)c34)c(Cl)cc12)[C@@H]1CCN(C(C)=O)[C@H]1C [Compound 416] | 0.1 to 1 µM |
| CCC(=O)N1CC[C@@H](N(CC)c2nc(OC[C@@]34CCCN3C[C@H](F)C4)nc3c(F)c(-c4ccc(F)c5sc(N)c(C#N)c45)c(Cl)cc23)[C@@H]1C [Compound 417] | 0.1 to 1 µM |
| CN(C)C(=O)c1cn2c(n1)CN(c1nc(OC[C@@]34CCCN3C[C@H](F)C4)nc3c(F)c(-c4ccc(F)c5sc(N)c(C#N)c45)c(C(F)(F)F)cc13)CC2 [Compound 419] | 0.1 to 1 µM |
| C[C@@H]1[C@H](N(C)c2nc(OC[C@@]34CCCN3C[C@H](F)C4)nc3c(F)c(-c4ccc(F)c5sc(N)c(C#N)c45)c(Cl)cc23)CCN1C(=O)C(C)(F)F [Compound 420] | 1 to 10 µM |
| C[C@@H]1[C@H](N(C)c2nc(OC[C@@]34CCCN3C[C@H](F)C4)nc3c(F)c(-c4ccc(F)c5sc(N)c(C#N)c45)c(Cl)cc23)CCN1C(=O)C(C)(C)F [Compound 421] | 1 to 10 µM |
| C[C@@H]1[C@H](N(C)c2nc(OC[C@@]34CCCN3C[C@H](F)C4)nc3c(F)c(-c4ccc(F)c5sc(N)c(C#N)c45)c(Cl)cc23)CCN1C(=O)C1(F)CC1 [Compound 422] | 1 to 10 µM |

Target: T3, Avi-KRAS G12R (1-169) GppNHp/RAF1 RBD-3xFLAG (52-151) (Homo sapiens, UniProt P01116, G12R)
T3 construct: Avi-KRAS G12R (1-169)
Experiment: Raf1-KRAS G12R-GppNHP disruption HTRF assay (Biological Example 1)
Type: binding
Settings: KRAS G12R-GppNHp/RAF1 RBD HTRF
Method in brief: as §1

T3 sequence (P01116 1-169 isoform P01116-2 G12R): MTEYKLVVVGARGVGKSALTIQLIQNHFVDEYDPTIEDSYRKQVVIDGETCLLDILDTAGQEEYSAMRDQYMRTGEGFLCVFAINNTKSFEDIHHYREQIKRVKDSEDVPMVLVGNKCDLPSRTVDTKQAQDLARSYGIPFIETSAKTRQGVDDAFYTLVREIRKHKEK

| SMILES | IC50 |
| --- | --- |
| CCN(c1nc(OC[C@@]23CCCN2C[C@H](F)C3)nc2c(F)c(-c3ccc(F)c4sc(N)c(C#N)c34)c(Cl)cc12)[C@@H]1CCN(C(C)=O)[C@H]1C [Compound 416] | 1 to 10 µM |
| CCC(=O)N1CC[C@@H](N(CC)c2nc(OC[C@@]34CCCN3C[C@H](F)C4)nc3c(F)c(-c4ccc(F)c5sc(N)c(C#N)c45)c(Cl)cc23)[C@@H]1C [Compound 417] | 1 to 10 µM |
| CN(C)C(=O)c1cn2c(n1)CN(c1nc(OC[C@@]34CCCN3C[C@H](F)C4)nc3c(F)c(-c4ccc(F)c5sc(N)c(C#N)c45)c(C(F)(F)F)cc13)CC2 [Compound 419] | 0.1 to 1 µM |
| C[C@@H]1[C@H](N(C)c2nc(OC[C@@]34CCCN3C[C@H](F)C4)nc3c(F)c(-c4ccc(F)c5sc(N)c(C#N)c45)c(Cl)cc23)CCN1C(=O)C(C)(F)F [Compound 420] | 1 to 10 µM |
| C[C@@H]1[C@H](N(C)c2nc(OC[C@@]34CCCN3C[C@H](F)C4)nc3c(F)c(-c4ccc(F)c5sc(N)c(C#N)c45)c(Cl)cc23)CCN1C(=O)C(C)(C)F [Compound 421] | 1 to 10 µM |
| C[C@@H]1[C@H](N(C)c2nc(OC[C@@]34CCCN3C[C@H](F)C4)nc3c(F)c(-c4ccc(F)c5sc(N)c(C#N)c45)c(Cl)cc23)CCN1C(=O)C1(F)CC1 [Compound 422] | 1 to 10 µM |

Target: T4, Avi-KRAS G12V (1-169) GppNHp/RAF1 RBD-3xFLAG (52-151) (Homo sapiens, UniProt P01116, G12V)
T4 construct: Avi-KRAS G12V (1-169)
Experiment: Raf1-KRAS G12V-GppNHP disruption HTRF assay (Biological Example 1)
Type: binding
Settings: KRAS G12V-GppNHp/RAF1 RBD HTRF
Method in brief: as §1

T4 sequence (P01116 1-169 isoform P01116-2 G12V): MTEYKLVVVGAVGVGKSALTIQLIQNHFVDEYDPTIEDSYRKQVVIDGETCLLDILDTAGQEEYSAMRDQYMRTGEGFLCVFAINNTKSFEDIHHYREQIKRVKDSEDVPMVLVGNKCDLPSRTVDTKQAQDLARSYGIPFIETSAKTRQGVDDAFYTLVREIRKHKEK

| SMILES | IC50 |
| --- | --- |
| CCN(c1nc(OC[C@@]23CCCN2C[C@H](F)C3)nc2c(F)c(-c3ccc(F)c4sc(N)c(C#N)c34)c(Cl)cc12)[C@@H]1CCN(C(C)=O)[C@H]1C [Compound 416] | 1 to 10 µM |
| CCC(=O)N1CC[C@@H](N(CC)c2nc(OC[C@@]34CCCN3C[C@H](F)C4)nc3c(F)c(-c4ccc(F)c5sc(N)c(C#N)c45)c(Cl)cc23)[C@@H]1C [Compound 417] | 1 to 10 µM |
| CN(C)C(=O)c1cn2c(n1)CN(c1nc(OC[C@@]34CCCN3C[C@H](F)C4)nc3c(F)c(-c4ccc(F)c5sc(N)c(C#N)c45)c(C(F)(F)F)cc13)CC2 [Compound 419] | 0.1 to 1 µM |
| C[C@@H]1[C@H](N(C)c2nc(OC[C@@]34CCCN3C[C@H](F)C4)nc3c(F)c(-c4ccc(F)c5sc(N)c(C#N)c45)c(Cl)cc23)CCN1C(=O)C(C)(F)F [Compound 420] | 1 to 10 µM |
| C[C@@H]1[C@H](N(C)c2nc(OC[C@@]34CCCN3C[C@H](F)C4)nc3c(F)c(-c4ccc(F)c5sc(N)c(C#N)c45)c(Cl)cc23)CCN1C(=O)C(C)(C)F [Compound 421] | 1 to 10 µM |
| C[C@@H]1[C@H](N(C)c2nc(OC[C@@]34CCCN3C[C@H](F)C4)nc3c(F)c(-c4ccc(F)c5sc(N)c(C#N)c45)c(Cl)cc23)CCN1C(=O)C1(F)CC1 [Compound 422] | 1 to 10 µM |

Tested on: SW620 cells (KRAS G12V)
Experiment: Cell-based pERK HTRF assay in SW620 cell (Biological Example 4)
Settings: Homo sapiens, SW-620, SW620 (KRAS G12V) cells, pERK HTRF
Method in brief: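 SW620 seeded in RPMI/10% FBS, next day dosed 4 h (top 1 μM, half-log, 9 pts, 0.25% DMSO). Lysed, pERK by d2/Eu cryptate HTRF, 4–24 h RT, 615 nm read.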

| SMILES | IC50 |
| --- | --- |
| CCN(c1nc(OC[C@@]23CCCN2C[C@H](F)C3)nc2c(F)c(-c3ccc(F)c4sc(N)c(C#N)c34)c(Cl)cc12)[C@@H]1CCN(C(C)=O)[C@H]1C [Compound 416] | 0.1 to 1 µM |
| CCC(=O)N1CC[C@@H](N(CC)c2nc(OC[C@@]34CCCN3C[C@H](F)C4)nc3c(F)c(-c4ccc(F)c5sc(N)c(C#N)c45)c(Cl)cc23)[C@@H]1C [Compound 417] | 0.1 to 1 µM |
| CN(C)C(=O)c1cn2c(n1)CN(c1nc(OC[C@@]34CCCN3C[C@H](F)C4)nc3c(F)c(-c4ccc(F)c5sc(N)c(C#N)c45)c(C(F)(F)F)cc13)CC2 [Compound 419] | < 0.1 µM |
| C[C@@H]1[C@H](N(C)c2nc(OC[C@@]34CCCN3C[C@H](F)C4)nc3c(F)c(-c4ccc(F)c5sc(N)c(C#N)c45)c(Cl)cc23)CCN1C(=O)C(C)(F)F [Compound 420] | 0.1 to 1 µM |
| C[C@@H]1[C@H](N(C)c2nc(OC[C@@]34CCCN3C[C@H](F)C4)nc3c(F)c(-c4ccc(F)c5sc(N)c(C#N)c45)c(Cl)cc23)CCN1C(=O)C(C)(C)F [Compound 421] | 0.1 to 1 µM |
| C[C@@H]1[C@H](N(C)c2nc(OC[C@@]34CCCN3C[C@H](F)C4)nc3c(F)c(-c4ccc(F)c5sc(N)c(C#N)c45)c(Cl)cc23)CCN1C(=O)C1(F)CC1 [Compound 422] | 0.1 to 1 µM |
